Data published in BigSolDB 2.1.

Oc1cc(O)c2cc(O)c(-c3cc(O)c(O)c(O)c3)[o+]c2c1.[Cl-]
solubility (mole fraction) (in acetone, 298.15 K): 5.5e-11 | solubility (mole fraction) (in acetone, 303.15 K): 6.6e-11 | solubility (mole fraction) (in acetone, 308.15 K): 7.1e-11 | solubility (mole fraction) (in acetone, 313.15 K): 7.7e-11 | solubility (mole fraction) (in acetone, 318.15 K): 8.7e-11 | solubility (mole fraction) (in acetone, 323.15 K): 9.8e-11 | solubility (mole fraction) (in acetone, 328.15 K): 1.06e-10 | solubility (mole fraction) (in acetone, 333.15 K): 1.24e-10 | solubility (mole fraction) (in acetone, 338.15 K): 1.35e-10 | solubility (mole fraction) (in acetone, 343.15 K): 1.57e-10 | solubility (mole fraction) (in ethanol, 298.15 K): 5.73e-08 | solubility (mole fraction) (in ethanol, 303.15 K): 6.13e-08 | solubility (mole fraction) (in ethanol, 308.15 K): 7.04e-08 | solubility (mole fraction) (in ethanol, 313.15 K): 7.7e-08 | solubility (mole fraction) (in ethanol, 318.15 K): 8.59e-08 | solubility (mole fraction) (in ethanol, 323.15 K): 9.8e-08 | solubility (mole fraction) (in ethanol, 328.15 K): 1.06e-07 | solubility (mole fraction) (in ethanol, 333.15 K): 1.23e-07 | solubility (mole fraction) (in ethanol, 338.15 K): 1.37e-07 | solubility (mole fraction) (in ethanol, 343.15 K): 1.56e-07 | solubility (mole fraction) (in methanol, 298.15 K): 5.86e-07 | solubility (mole fraction) (in methanol, 303.15 K): 6.62e-07 | solubility (mole fraction) (in methanol, 308.15 K): 7.71e-07 | solubility (mole fraction) (in methanol, 313.15 K): 8.77e-07 | solubility (mole fraction) (in methanol, 318.15 K): 9.71e-07 | solubility (mole fraction) (in methanol, 323.15 K): 1.05e-06 | solubility (mole fraction) (in methanol, 328.15 K): 1.26e-06 | solubility (mole fraction) (in methanol, 333.15 K): 1.4e-06 | solubility (mole fraction) (in methanol, 338.15 K): 1.53e-06 | solubility (mole fraction) (in methanol, 343.15 K): 1.69e-06 | solubility (mole fraction) (in water, 298.15 K): 5.35e-07 | solubility (mole fraction) (in water, 303.15 K): 6.39e-07 | solubility (mole fraction) (in water, 308.15 K): 6.98e-07 | solubility (mole fraction) (in water, 313.15 K): 7.87e-07 | solubility (mole fraction) (in water, 318.15 K): 8.69e-07 | solubility (mole fraction) (in water, 323.15 K): 1.02e-06 | solubility (mole fraction) (in water, 328.15 K): 1.11e-06 | solubility (mole fraction) (in water, 333.15 K): 1.24e-06 | solubility (mole fraction) (in water, 338.15 K): 1.48e-06 | solubility (mole fraction) (in water, 343.15 K): 1.64e-06
